Reference: ChEMBL document CHEMBL5126553, “Dentithecamides A-H, Diacylated Zoanthoxanthin Derivatives with PAX3-FOXO1 Inhibitory Activity from the Hydroid Dentitheca habereri” (J Nat Prod, 2022)
The source made the active and inactive calls. No cut-off for these calls is given here.

Key:
[1] = Cytotoxicity against human Rh4 cells transfected with CMV-Luc construct assessed as inhibition of cell growth at 100 uM by luciferase assay; format: toxicity, cell-based; conditions: rh4, 100 µM
PAX3/FOXO1 = PAX3/FOXO1 (Homo sapiens, UniProt P23760+Q12778); test: Inhibition of PAX3-FOXO1 driven transcriptional activity in human Rh4 cells transfected with ALK-Luc construct incubated for 24 hrs by luciferase assay; format: cell-based
Sequence of PAX3/FOXO1 (Q12778 whole entry): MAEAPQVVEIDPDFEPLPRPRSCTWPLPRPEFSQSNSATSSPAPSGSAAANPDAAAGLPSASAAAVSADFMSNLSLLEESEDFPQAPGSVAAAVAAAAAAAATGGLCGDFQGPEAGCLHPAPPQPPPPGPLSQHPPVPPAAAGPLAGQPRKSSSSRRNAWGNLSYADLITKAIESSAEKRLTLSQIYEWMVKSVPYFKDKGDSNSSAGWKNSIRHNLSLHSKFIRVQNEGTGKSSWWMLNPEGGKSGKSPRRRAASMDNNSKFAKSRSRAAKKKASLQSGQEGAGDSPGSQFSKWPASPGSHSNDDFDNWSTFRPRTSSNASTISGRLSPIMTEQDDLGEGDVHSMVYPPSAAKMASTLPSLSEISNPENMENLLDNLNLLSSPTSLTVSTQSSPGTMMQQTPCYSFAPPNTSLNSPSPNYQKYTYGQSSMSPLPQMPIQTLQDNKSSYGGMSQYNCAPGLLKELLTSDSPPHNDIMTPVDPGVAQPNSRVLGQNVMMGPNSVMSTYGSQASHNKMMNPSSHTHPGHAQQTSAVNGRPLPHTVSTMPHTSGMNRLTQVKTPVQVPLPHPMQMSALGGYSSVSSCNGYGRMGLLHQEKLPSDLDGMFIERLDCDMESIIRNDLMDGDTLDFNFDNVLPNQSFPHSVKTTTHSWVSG
Sequence of PAX3/FOXO1 (P23760 whole entry): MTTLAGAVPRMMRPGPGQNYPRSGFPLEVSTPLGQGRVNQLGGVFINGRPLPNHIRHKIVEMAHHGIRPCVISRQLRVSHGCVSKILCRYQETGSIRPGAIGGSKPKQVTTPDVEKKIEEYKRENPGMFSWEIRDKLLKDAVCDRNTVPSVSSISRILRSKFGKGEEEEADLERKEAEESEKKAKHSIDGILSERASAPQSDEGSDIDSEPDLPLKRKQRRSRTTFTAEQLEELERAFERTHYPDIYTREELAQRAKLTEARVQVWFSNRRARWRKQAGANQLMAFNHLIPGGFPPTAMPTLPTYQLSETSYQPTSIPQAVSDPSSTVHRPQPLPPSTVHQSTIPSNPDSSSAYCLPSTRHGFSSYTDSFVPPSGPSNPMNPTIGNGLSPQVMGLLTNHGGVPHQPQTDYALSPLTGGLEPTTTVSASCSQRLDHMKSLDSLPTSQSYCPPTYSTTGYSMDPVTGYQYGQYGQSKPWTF

Rh4 = test: Upregulation of TNF gene expression in human Rh4 cells; format: functional, cell-based
[2] = biological target: T1, PAX3/FOXO1 (Homo sapiens) (UniProt Q12778+P23760); test: Inhibition of PAX3-FOXO1 driven transcriptional activity in human Rh4 cells assessed as upregulation of TNFRSF12A gene expression at 20 uM incubated for 6 hrs by GSEA analysis; format: cell-based
T1 sequence (P23760 whole entry, looked up): as the sequence (P23760 whole entry) above
T1 sequence (Q12778 whole entry, looked up): as the sequence (Q12778 whole entry) above

[3] = biological target: T1, PAX3/FOXO1 (Homo sapiens); test: Inhibition of PAX3-FOXO1 driven transcriptional activity in human Rh4 cells assessed as upregulation of SOX9 gene expression at 20 uM incubated for 6 hrs by GSEA analysis; format: cell-based
[4] = biological target: T1, PAX3/FOXO1 (Homo sapiens); test: Inhibition of PAX3-FOXO1 driven transcriptional activity in human Rh4 cells assessed as upregulation of TIMP3 gene expression at 20 uM incubated for 6 hrs by GSEA analysis; format: cell-based
[5] = biological target: T1, PAX3/FOXO1 (Homo sapiens); test: Inhibition of PAX3-FOXO1 driven transcriptional activity in human Rh4 cells assessed as upregulation of KIT gene expression at 20 uM incubated for 6 hrs by GSEA analysis; format: cell-based
[6] = biological target: T1, PAX3/FOXO1 (Homo sapiens); test: Inhibition of PAX3-FOXO1 driven transcriptional activity in human Rh4 cells assessed as upregulation of KLF10 gene expression at 20 uM incubated for 6 hrs by GSEA analysis; format: cell-based
[7] = biological target: T1, PAX3/FOXO1 (Homo sapiens); test: Inhibition of PAX3-FOXO1 driven transcriptional activity in human Rh4 cells assessed as upregulation of SERPINE1 gene expression at 20 uM incubated for 6 hrs by GSEA analysis; format: cell-based
[8] = biological target: T1, PAX3/FOXO1 (Homo sapiens); test: Inhibition of PAX3-FOXO1 driven transcriptional activity in human Rh4 cells assessed as upregulation of ID1 gene expression at 20 uM incubated for 6 hrs by GSEA analysis; format: cell-based
[9] = biological target: T1, PAX3/FOXO1 (Homo sapiens); test: Inhibition of PAX3-FOXO1 driven transcriptional activity in human Rh4 cells assessed as upregulation of BCL2L1 gene expression at 20 uM incubated for 6 hrs by GSEA analysis; format: cell-based
[10] = biological target: T1, PAX3/FOXO1 (Homo sapiens); test: Inhibition of PAX3-FOXO1 driven transcriptional activity in human Rh4 cells assessed as upregulation of DGKD gene expression at 20 uM incubated for 6 hrs by GSEA analysis; format: cell-based
[11] = biological target: T1, PAX3/FOXO1 (Homo sapiens); test: Inhibition of PAX3-FOXO1 driven transcriptional activity in human Rh4 cells assessed as upregulation of IL-11 gene expression at 20 uM incubated for 6 hrs by GSEA analysis; format: cell-based
[12] = biological target: T1, PAX3/FOXO1 (Homo sapiens); test: Inhibition of PAX3-FOXO1 driven transcriptional activity in human Rh4 cells assessed as upregulation of LBH gene expression at 20 uM incubated for 6 hrs by GSEA analysis; format: cell-based
[13] = biological target: T1, PAX3/FOXO1 (Homo sapiens); test: Inhibition of PAX3-FOXO1 driven transcriptional activity in human Rh4 cells assessed as upregulation of EPHA2 gene expression at 20 uM incubated for 6 hrs by GSEA analysis; format: cell-based
[14] = biological target: T1, PAX3/FOXO1 (Homo sapiens); test: Inhibition of PAX3-FOXO1 driven transcriptional activity in human Rh4 cells assessed as upregulation of VEGFA gene expression at 20 uM incubated for 6 hrs by GSEA analysis; format: cell-based
[15] = biological target: T1, PAX3/FOXO1 (Homo sapiens); test: Inhibition of PAX3-FOXO1 driven transcriptional activity in human Rh4 cells assessed as upregulation of GADD45B gene expression at 20 uM incubated for 6 hrs by GSEA analysis; format: cell-based

For `CC[C@H](C)C(=O)Nc1nc2c([nH]1)C(C)c1[nH]c(NC(=O)c3ccccc3)nc1CC2` (stereo partly specified), the Activity [1] was “Toxic” and the IC50 (PAX3/FOXO1) was 26 µM.
For `CC1c2[nH]c(NC(=O)c3ccccc3)nc2CCc2nc(NC(=O)c3ccccc3)[nH]c21`, the Activity [1] was “Toxic”, the IC50 (PAX3/FOXO1) was 13 µM and the Activity (Rh4) was “Active”.
In the case of `CC(C)C(=O)Nc1nc2c([nH]1)C(C)c1[nH]c(NC(=O)c3ccccc3)nc1CC2` (stereo unspecified), the Activity [1] is reported as “Toxic” and the IC50 (PAX3/FOXO1) is reported as 67 µM.
For `CC(C)=CC(=O)Nc1nc2c([nH]1)C(C)c1[nH]c(NC(=O)c3ccccc3)nc1CC2` (stereo unspecified), the inhibition [2] was “Active”, the inhibition [3] was “Active” and the inhibition [4] was “Active”. For the same molecule, the Activity [1] was “Toxic”, the inhibition [5] was “Active” and the IC50 (PAX3/FOXO1) was 17 µM. The inhibition [6] was “Active”, the inhibition [7] was “Active” and the Activity (Rh4) was “Active”. For the same molecule, the inhibition [8] was “Active”, the inhibition [9] was “Active” and the inhibition [10] was “Active”. For the same molecule, the inhibition [11] was “Active”, the inhibition [12] was “Active” and the inhibition [13] was “Active”. For the same molecule, the inhibition [14] was “Active” and the inhibition [15] was “Active”.
With `CC[C@H](C)C(=O)Nc1nc2c([nH]1)C(C)c1[nH]c(NC(=O)/C=C/c3ccccc3)nc1CC2` (stereo partly specified) the Activity [1] was “Toxic” and the IC50 (PAX3/FOXO1) was 42 µM.
